In patent publication US9023653B2, “Method of labeling sulfenic acid-containing proteins and peptides” (Wake Forest University Health Sciences, priority 2011, dated 2015):

Experiments:
[1] = cited from earlier work
C165S AhpC-SOH = C165S AhpC-SOH (Salmonella typhimurium, UniProt P0A251, C166S); test: Labeling of C165S AhpC-SOH monitored by ESI-TOF MS; assay type: biochemical, bacteria
Experimental: The C165S AhpC was reduced in 10 mM DTT at room temperature for […] and the DTT was then removed by passing the protein solution through a Bio-Gel spin column equilibrated with ddH2O. The protein concentration was measured based on absorbance at 280 nm using the extinction coefficient 24,300 (M^−1 cm^−1). Typically, 200-400 μM C165S AhpC protein was oxidized to —SOH by incubating with 2 equivalents H2O2 for […] at r.t. with mixing. The excess H2O2 was removed using Bio-Gel spin columns equilibrated with ddH2O.
The C165S AhpC-SOH protein generated as described above was diluted to 50 μM in 50 mM Bis-tris-citric acid buffer (pH 7.4) containing 5 mM (final concentration) of reagent 1. After 3 h incubation with mixing, 30 μL aliquot of reaction mixture was passed through a Bio-Gel column equilibrated with 0.1% formic acid for ESI-TOF MS analysis. […] The covalent C165S AhpC-1 adduct was incubated with 50 mM-1 M hydroxylamine (stock 1N hydroxylamine, pH 8.0-8.5, adjusted by adding 2 N NaOH or 1 N ammonium bicarbonate) for 1 h at 37° C. before passing through the Bio-Gel column for ESI-TOF MS analysis.
The C165S AhpC-SOH protein was immediately aliquot to appropriate buffers: 50 mM Bis-tris-citric acid pH 7.4, 8.5, and 9.5, and 25 mM critic acid-Na2HPO4 buffers pH 5.5, and 6.5. Final concentrations of 50 μM protein and 5 mM labeling reagents (dimedone or 2) were used for all reactions. Dimedone stock was made in 0.5 M Bis-tris and DMSO (v:v=1:1) to pre-buffer its acidity around 6.5 before adding it to the reaction buffers. Final DMSO concentration during labeling was 0.5%. At the end of the incubation time (4 h for data in FIG. 1—pH 7.4 and 8.5; 90 min for data in FIG. S5A—pH 5.5-9.5), 30 μl, reaction mixture at each pH was passed through a Bio-Gel spin column and analyzed by ESI-TOF MS. Data were fit using SigmaPlot 11.0 and the user defined equation below to obtain the pKa: […]
The C165S AhpC-SOH was incubated with increasing concentrations of 2 (0.2, 0.5, 1, 5, and 10 mM) for 2 h in 50 mM Bis-tris-citric acid (pH 7.4) at r.t. The reaction mixture (30 μL) was passed through a Bio-Gel spin column and analyzed by ESI-TOF MS. Data were fit to a hyperbolic equation to determine K0.5 using SigmaPlot 11.0.
C165S AhpC-SOH protein was first labeled by 2 at pH 9.5 for 1 h and passed successively through three Bio-Gel spin columns equilibrated with PBS to remove the unreacted 2. Near 100% labeling of AhpC was configured by ESI-TOF MS. The C165S AhpC-2 adduct concentration was measured at 280 nm using the extinction coefficient 24,300 (M^−1 cm^−1) and then diluted in PBS to a final concentration of 50 μM. Click reaction was conducted by adding the following reagents in order: biotin-OEG11-azide (1 mM, final, from 50 mM stock in DMSO), TCEP (2 mM, final, from 100 mM stock freshly made in H2O), TBTA (0.1 mM, final, from 1.7 mM stock made in 1:4 DMSO/t-butanol) and CuSO4 (1 mM, final, from 50 mM stock in H2O). The mixture was incubated at r.t. for 2 h and then 30 μL of reaction mixture was passed through a Bio-Gel column equilibrated with 0.1% formic acid for ESI-TOF MS analysis. The biotin moiety was removed by hydroxylamine treatment as described above and the reaction products were analyzed by ESI-TOF MS.
(§1) ESI-TOF-MS analysis was performed on Agilent MSD TOF system in positive ion mode with the following settings: capillary voltage (VCap) 3500 V, nebulizer gas 30 psig, drying gas 5.0 L min^−1; fragmentor 140 V; gas temperature 325° C. The samples were injected at a flow rate of 20 μL min^−1, using a syringe pump (KD Scientific). The averaged MS spectra were deconvoluted using the Agilent MassHunter Workstation Software v B.01.03.

[2] = system: C165S AhpC-SH, C165S AhpC-SO2H and —SO3H, WT AhpC-S—S-AhpC; test: Control experiments using AhpC-SH, AhpC-SO2/3H and WT AhpC proteins (ESI-TOF MS); assay type: biochemical, bacteria; conditions: 5 mM, pH 7.4, 1.5 h at r.t.
Experimental: (§2) Reduced form of C165S AhpC(C165S AhpC-SH), hyperoxidized protein (C165S AhpC-SO2H and —SO3H) and WT AhpC (disulfide crosslinked dimer, […]) were incubated with 1 (5 mM) for 1.5 h at r.t., pass through the Bio-Gel spin column and analyzed by ESI-TOF MS. C165S AhpC-SO2H and —SO3H were generated by incubating C165S AhpC-SH (250 μM) in ddH2O with 20 equivalents H2O2 for 1 h at r.t. with mixing. The excess H2O2 was removed using Bio-Gel spin columns and protein concentration was determined based on absorbance at 280 nm using the extinction coefficient 24,300 (M^−1 cm^−1).
as §1

[3] = system: —SOH proteins in NIH 3T3 cell lysates; test: Labeling of —SOH proteins in NIH 3T3 cell lysates (click biotinylation, Western blot); assay type: biochemical; conditions: for labeling of lysate proteins (streptavidin-HRP signal): 5 mM
Experimental: NIH 3T3 cells were cultured to 95% confluence in complete media (DMEM High Glucose (Invitrogen) supplemented with 10% fetal bovine serum (FBS, Invitrogen) and 1% penicillin & streptomycin (Invitrogen)). Cells were washed with PBS three times and lysed using 5 mM of 2 in lysis buffer (50 mM NaCl, 1 mM EDTA, 1 mM EGTA, 10% Glycerol, 1% Triton X-100, 25 mM NaF, 10 μM ZnCl2, supplemented with protease and phosphatase inhibitor tablets (Roche)). Lysis buffer was made in 50 mM citric acid/Na2HPO4 when labeling was carried out at pH 5.5 and 7.4, and in 50 mM NaHCO3/Na2CO3 for labeling at pH 9.5. Lysates were incubated for 2 h at r.t. and then quenched by adding cold MeOH/CHCl3^[1] to remove excess 2.
Cells were lysed using lysis buffer (pH 7.4) supplemented with 2 (5 mM) as described above. The labeling was allowed to proceed at r.t. for 2 h before quenching with MeOH/CHCl3. Protein pellets precipitated from 200 μL lysate were resuspended in 50 μL, 1% SDS in PBS, sonicated for 30 s and finally heated at 95° C. for 5 mins. Protein concentration was measured using Bio-Rad protein assay (SDS concentration in the assay 0.001%) and normalized to the same concentration. Click reaction was performed using the solubilized lysate proteins according to the procedures described above. After 2 h incubation, 15 μL reaction aliquot from each sample was mixed with 5 μL sample buffer (with β-mecaptoethanol) for SDS-PAGE and Western blot analysis. Biotinylated proteins were probed using Streptavidin-HRP. In control experiments, lysates were pre-reduced with 10 mM TCEP at pH 7.4 for 1 h at r.t. before the addition of 2; lysates prepared in the absence of 2 with or without click reaction were also included in the SDS-PAGE and Western blot analysis.

SCC-61 cells [4] = test: MTT assay (cell viability); assay type: cell-based; conditions: 1 h incubation, 1-20 mM
Experimental: MTT (3-(4,5-dimethylthiazol-2-yl)-2,5-diphenyltetrazolium bromide) assay was used to test the SCC-61 cell viability when incubated with dimedone or 2 for 1 h. SCC-61 cells were seeded in a 96-well plate at a density of 5,000 per well in 50 μL, and incubated overnight. Dimedone or 2 (50 μL) was added to each well at final concentrations of 1, 2.5, 5, 10, and 20 mM. Plates were then incubated for 1 h at 37° C. in a humidified atmosphere with 5% CO2. MTT labeling reagent (Roche; 5 mg/ml in PBS, 10 μL) was added to each well, and the plate was incubated for 4 h at 37° C. The solubilization solution (100 μL) was then added to each well for overnight incubation at 37° C. The following day, absorbance was measured at 570 nm and all experiments were repeated twice. The resulting curves were fitted using SigmaPlot software to a sigmoidal dose-response equation to determine the IC50. The IC50 represents the concentration of chemical probe causing a 50% reduction in cell viability.

SCC-61 cells [5] = test: Cell membrane permeability assay; assay type: cell-based; conditions: 10 mM, 2 h
Experimental: SCC-61 cells were cultured to 95% confluence in complete media (DMEM/F12 High Glucose (Invitrogen) supplemented with 10% fetal bovine serum (FBS, Invitrogen), 1% penicillin & streptomycin (Invitrogen)). Cells were washed with HBSS buffer (pH 7.4) three times and incubated with 10 mM probe 2 in HBSS at r.t. for 2 h. Cells incubated in HBSS without 2 were included as controls. After the incubation, cells were carefully washed by HBSS three times to remove excess 2 and lysed with the lysis buffer described above except in the absence of 2. Lysates were incubated at r.t. for additional 2 h to ensure complete labeling prior to the addition of cold MeOH/CHCl3 for protein precipitation. The denatured proteins were resolubilized in 1% SDS (in PBS) for the click reaction, which was then followed by Western-blot analysis as described above.

NIH 3T3 cells = test: DCF assay (intracellular ROS level); assay type: cell-based; conditions: 10 mM, 2 h
Experimental: NIH 3T3 cells cultured in 60-mm dishes were serum starved overnight and incubated with 10 mM dimedone, reagent 2 or 1% DMSO individually for 2 h. 5-(and-6)-carboxy-2′,7′-dichloro-dihydrofluorescein diacetate (carboxy-H2DCFDA) (100 μM; Invitrogen) was added to cells at room temperature after the incubation. The cells were then immediately washed twice with PBS and visualized with Arcturus PixCell II laser capture microscope using 20× objective.

[6] = biological target: C165S AhpC-SH, C165S AhpC-SO2H and —SO3H, WT AhpC-S—S-AhpC (Salmonella typhimurium, UniProt P0A251, C166S); test: Control experiments using AhpC-SH, AhpC-SO2/3H and WT AhpC proteins (ESI-TOF MS); assay type: biochemical, bacteria; conditions: pH 9.5
C165S AhpC-SH, C165S AhpC-SO2H and —SO3H, WT AhpC-S—S-AhpC (Salmonella typhimurium, UniProt P0A251, C166S), sequence (P0A251 2-187 C166S): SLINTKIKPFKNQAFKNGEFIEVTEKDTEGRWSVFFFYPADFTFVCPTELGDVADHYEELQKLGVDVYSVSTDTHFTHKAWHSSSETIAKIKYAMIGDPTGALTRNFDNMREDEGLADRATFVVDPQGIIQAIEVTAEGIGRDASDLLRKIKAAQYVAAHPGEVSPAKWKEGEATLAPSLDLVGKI
Experimental: as §2, §1

C165S AhpC-SOH, sequence (P0A251 whole entry C166S): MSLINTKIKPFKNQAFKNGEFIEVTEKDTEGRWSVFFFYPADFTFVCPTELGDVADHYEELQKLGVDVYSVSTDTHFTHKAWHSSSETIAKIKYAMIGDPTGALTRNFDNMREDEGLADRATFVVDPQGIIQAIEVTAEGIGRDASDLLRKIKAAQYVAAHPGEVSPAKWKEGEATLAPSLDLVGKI

Structure (SMILES) | enol content ([1]; in aqueous solution) [%] | labeling of C165S AhpC-SOH (adduct product peak) (C165S AhpC-SOH; AhpC 50 uM, reagent 5 mM, pH 7.4, 3 h) | reaction with —SH, —S—S—, —SO2/3H, or other amino acid residues [2] | labeling of lysate proteins (streptavidin-HRP signal) ([3]; pH 5.5) | labeling of lysate proteins (streptavidin-HRP signal) ([3]; pH 7.4 and 9.5) | selectivity of labeling in cell lysates ([3]; pH 7.4, lysates pre-reduced with TCEP as control) | reactivity with AhpC-SOH as pH increases (C165S AhpC-SOH; higher pH (up to 9.5)) | reactivity with AhpC-SOH at low pH (C165S AhpC-SOH; pH 5.5 and 6.5) | K0.5 (hyperbolic fit of labeling vs probe concentration) (C165S AhpC-SOH; pH 7.4, 2 h, r.t., 0.2-10 mM probe) [mM] | labeling of —SOH compared with dimedone (C165S AhpC-SOH; pH 7.4 and 8.5, 50 μM protein, 5 mM reagent, 4 h) | effect on cell viability (SCC-61 cells [4]) | cell permeability (biotin signal after click reaction) (SCC-61 cells [5]) | intracellular ROS level (DCF) (NIH 3T3 cells) | adduct formation with reduced form of C165S AhpC [6] | keto-enol tautomerism state ([1]; reported) | pKa for the carbon between keto groups ([1]; reported) | reactivity at mildly acidic or basic conditions compared to pH 7.4 (C165S AhpC-SOH; data not shown) | IC50 (SCC-61 cells [4]; read-out: IC50 (50% reduction in cell viability)) [mM]
COC(=O)CC(C)=O [compound 1, methyl acetoacetate] | 7.4 | labeling of C165S AhpC-SOH | did not react |  |  |  |  |  |  |  |  |  |  |  |  |  |  | 
C#CCCOC(=O)CC(C)=O [compound 2, but-3-yn-1-yl 3-oxobutanoate] |  |  |  | no visible signal | Nearly equal labeling | selective towards —SOH | becomes highly reactive | reacts very slowly | 3.0 ± 0.3 | Increased labeling | did not significantly affect cell viability | cell permeable | did not alter the basal level of ROS | no adduct formation |  |  |  | 
CC1(C)CC(=O)CC(=O)C1 [dimedone, 5,5-dimethyl-1,3-cyclohexanedione, reference compound] |  |  |  |  |  |  |  |  |  |  |  |  | significant increase in ROS |  | exclusively in the enol state | 4.3 | slight increase in reactivity | 5.3 ± 0.2
